Converted amounts (≈) assume the structure as drawn.
What was measured:
[1] = test system: CYP1A2, CYP2C9, CYP2C19, CYP2D6, CYP3A4; assay: CYP inhibition in human liver microsomes
SIRT1 = target: T1, SIRT1 (Homo sapiens, UniProt Q96EB6); assay: CISBIO HTRF SIRT1 assay of SIRT1 peptide deacetylation, modified by excluding NAD+; format: biochemical; conditions: average AC50 values, n = 6; read-out: AC50
T1 construct: purchased Cisbio Bioassays
T1 sequence (Q96EB6 1-747): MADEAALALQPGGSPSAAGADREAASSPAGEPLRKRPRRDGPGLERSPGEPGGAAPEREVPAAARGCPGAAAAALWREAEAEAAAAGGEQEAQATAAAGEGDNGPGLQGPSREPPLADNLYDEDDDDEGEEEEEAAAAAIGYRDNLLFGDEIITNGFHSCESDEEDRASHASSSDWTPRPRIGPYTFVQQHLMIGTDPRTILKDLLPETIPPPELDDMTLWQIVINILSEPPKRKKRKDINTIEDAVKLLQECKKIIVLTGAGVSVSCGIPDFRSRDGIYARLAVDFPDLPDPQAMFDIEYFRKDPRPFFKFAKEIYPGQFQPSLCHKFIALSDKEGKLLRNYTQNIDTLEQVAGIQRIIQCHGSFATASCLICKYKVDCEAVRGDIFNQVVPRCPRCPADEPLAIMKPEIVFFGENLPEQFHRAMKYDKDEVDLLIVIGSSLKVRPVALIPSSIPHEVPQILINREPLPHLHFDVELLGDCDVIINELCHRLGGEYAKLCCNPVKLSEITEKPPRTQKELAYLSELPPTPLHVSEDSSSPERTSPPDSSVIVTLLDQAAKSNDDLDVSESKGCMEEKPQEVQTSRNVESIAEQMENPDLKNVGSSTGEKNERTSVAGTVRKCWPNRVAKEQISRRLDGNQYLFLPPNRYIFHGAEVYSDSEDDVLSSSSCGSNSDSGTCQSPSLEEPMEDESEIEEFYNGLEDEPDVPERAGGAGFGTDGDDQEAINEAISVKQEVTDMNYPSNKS
Method: Generally, the CISBIO HTRF® fluorescence enzyme titration assay (Cisbio Bioassays, Cisbio, 135 South Road, Bedford, Mass. 01730, USA) has provided information on inhibition and/or activation of SIRT1 deacetylation of a substrate peptide d2 containing a single acetylated lysine residue and a fluorescence probe/quencher. IC50 and AC50 values have been obtained. The assay was performed in microtiter wells and involved an enzymatic step, wherein 2 μL of the substrate peptide (6 nM) is incubated with 2 μL of SIRT1 enzyme (2.5 ng) and 2 μL of compound solution in DMSO and water. Reaction with anti-acetyl cryptate produces a FRET signal giving maximum signal when no SIRT1 reaction can be detected. The detection step involves quantification of the deacetylation process using an anti-acetyl MAb labeled with Eu^3+ cryptate. The assay was modified by excluding the NAD+ cofactor and using nicotinamide as inhibition control and the compound SRT1720 as activation control. SRT 1720 is described as a SIRT1 activating compound in Pillarisetti, S. (2008).
Protocol for inhibition/activation assay:
After adding all enzymatic step ingredients the mixture is incubated at room temperature at 30 to 60 min. Then the detection reactant is added and incubated at room temperature for 5 hours and on to produce a signal. The fluorescence readout is given as percentage of signal produced with no enzyme reaction.
The cryptate is excited at 337 nm and the fluorescence is measured at 590 nm (cryptate emission wavelength) and 665 nm (d2 emission wavelength). A ratio is calculated (665/590 nm) for each well.
The figures show percentage fluorescence as a function of Log C (log of compound concentration in μM).

[2] = Kinetic aqueous solubility; format: physicochemical; conditions: phosphate buffer, pH 7.4, aqueous buffer, kinetic from dmso stock; read-out: Measured kinetic solubility
[3] = Measured partition coefficients (MlogD7.4, logP11); format: physicochemical
Method: Physical properties tPSA and ClogP (calculated lipophilicity octanol/water) were calculated using ChemDraw. Additionally, M log D7.4 (measured partition coefficient at pH 7.4) and log P11 (measured partition coefficient at pH 11) were measured, and all data are shown in Table 7.

[4] = Metabolic stability in rat hepatocytes; format: in vitro ADME; conditions: rat hepatocytes, hepatic intrinsic clearance
Method: (§1) Stability of the six compounds in the presence of a drug metabolizing system such as human and rat hepatocytes was measured. Data were reported from the CRO in the format of hepatic intrinsic clearance (CLint) in mL/min/kg. These CLint data were converted using the well-stirred equation
(§2) to a whole body clearance (CLh, hepatic clearance), which is more directly physiologically interpreted (Qh, hepatic blood flow rate, mL/min/kg).

rat hepatocytes = assay: Metabolic stability in rat hepatocytes; format: in vitro ADME; conditions: rat Qh = 55 mL/min/kg
Method: as §1, §2

MDCK-MDR1 cells = test system: MDCK-MDR1 cells
From the text: MDR1 is the nomenclature for the major efflux transporter P-glycoprotein (P-gp), which is expressed at important anatomical barriers such as blood-brain, small intestine, and tumor cells. The MDCK-MDR model is a polarized cell model over expressing P-gp (i.e. P-gp is expressed on the Apical, or gut lumen, side of the cell) that is capable of actively effluxing small molecule substrates in the B to A direction. […] The compounds were run bidirectionally (Compound added to apical side and flux measured of compound appearing on the basolateral, or blood, side; compound added on basolateral side and flux of compound to apical side measured).

[5] = Metabolic stability in human hepatocytes; format: in vitro ADME; conditions: human hepatocytes, hepatic intrinsic clearance; read-out: hu CLint
Method: as §1, §2

human hepatocytes = assay: Metabolic stability in human hepatocytes; format: in vitro ADME; conditions: human Qh = 21 mL/min/kg
Method: as §1, §2

[6] = Solubility in DMSO stock solution; conditions: solubility in DMSO before further dilution with water to 1% DMSO
[7] = test system: human and rat hepatocytes; assay: Stability in cryopreserved hepatocytes (FIG. 7), verbal summary; format: in vitro ADME; conditions: 90 minutes
Method: as §1

[8] = hepatic clearance from CLint by well-stirred equation

SMILES: NC(=O)c1ccc(C(=O)Nc2ccc(O)cc2O)nc1 [Compound 3, 2-N(2,4-dihydroxyphenyl)pyridine-2,5-dicarboxamide]
- IC50 [1]: > 5 µM
- AC50 (SIRT1): 10 µM
- solubility kinetic [2]: 14 to 55 µg/mL (≈ 51.2 to 201 µM)
- logD ([3]; measured partition coefficient at pH 7.4): 0.8
- logP ([3]; measured partition coefficient at pH 11, read-out: MlogP11): 1
- CLint scaled [4]: 53 mL/min/kg
- % Qh (rat) (rat hepatocytes; CLh as % of hepatic blood flow): 49.1%
- rat CLh (rat hepatocytes; [8]): 27.0 mL/min/kg
- Cell permeability (in words) (MDCK-MDR1 cells): moderate cell permeability
- P-gp mediated efflux (in words) (MDCK-MDR1 cells): no P-gp mediated efflux
- CLint scaled [5]: 83 mL/min/kg
- % Qh (human) (human hepatocytes; CLh as % of hepatic blood flow): 79.8%
- hu CLh (human hepatocytes; [8]): 16.8 mL/min/kg
- Concentration of compound in DMSO stock solution [6]: 20000 µM
- Clearance in hepatocytes (in words) [7]: relatively low clearance
- Stability in hepatocytes (in words) [7]: good stability

From US20140329854A1, “NOVEL HETEROCYCLIC COMPOUNDS USEFUL IN SIRTUIN BINDING AND MODULATION” (SMB Innovation, priority 2011, published 2014)
